In patent publication US20260216347A1, “Substituted Imidazo-Based Compounds as Ligand Directed Degraders of IRAK3” (Celgene Corporation, priority 2022, published 2026):

Target: T1, IRAK3-ePL (Homo sapiens, UniProt Q9Y616)
T1 construct: expressed in transfected cells; host or cells: 293T CRBN OE/GSPT1 G575N KI cells, lentiviral transduction, puromycin selected
Assay: IRAK3-ePL overexpressing degradation assay (InCELL Hunter luminescence, dose response)
Assay type: cell-based
Settings: for IRAK3 ePL degradation Ymin: lowest percentage of target protein remaining following compound treatment; for DC50: read-out: IRAK3 ePL degradation EC50
Summary of the method: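 Lenti-X 293T CRBN/GSPT1 G575N cells stably expressing IRAK3-ePL (5,000/well) treated overnight at 37° C with 10-point 3-fold dilutions from 10 μM, 0.2% DMSO. InCELL Hunter luminescence, background subtracted using Ataluren wells and normalized to DMSO; EC50 from four-parameter logistic fit.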

Cc1cc(-c2ccc(Nc3cnn(C4CCN(CCN5CCN(c6ccc(C7CCC(=O)NC7=O)cc6)CC5)CC4)c3)c3nccn23)c(F)cc1F (stereo not drawn) [Compound 12, 3-(4-(4-(2-(4-(4-((5-(2,4-difluoro-5-methylphenyl)imdazo [1,2-a]pyridin-8-yl)amino)-1H-pyrazol-1-yl)piperidin-1-yl)ethyl)piperazin-1-yl)phenyl) piperidine-2,6-dione]
IRAK3 ePL degradation Ymin: 14% | DC50: 3 nM

Cc1cc(-c2cnc(Nc3cnn(C4CCN(CCN5CCN(c6ccc(C7CCC(=O)NC7=O)cc6)CC5)CC4)c3)c3nccn23)ccc1F (stereo not drawn) [Compound 33, 3-(4-(4-(2-(4-(4-((5-(4-fluoro-3-methylphenyl)imdazo [1,2-a]pyrazin-8-yl)amino)-1H-pyrazol-1-yl)piperidin-1-yl)ethyl)piperazin-1-yl)phenyl) piperidine-2,6-dione]
IRAK3 ePL degradation Ymin: 24% | DC50: 7.9 nM

Cc1cc(-c2cnc(Nc3cnn([C@H]4CC[C@H](CCN5CCN(c6ccc(C7CCC(=O)NC7=O)cc6)CC5)CC4)c3)c3nccn23)c(F)cc1F (stereo partly drawn) [Compound 11, 3-(4-(4-(2-((trans)-4-(4-((5-(2,4-difluoro-5-methylphenyl)imidazo[1,2-a]pyrazin-8-yl)amino)-1H-pyrazol-1-yl)cyclohexyl)ethyl)piperazin-1-yl)phenyl)piperidine-2,6-dione]
IRAK3 ePL degradation Ymin: 22% | DC50: 4 nM

Cc1cc(-c2cnc(Nc3cnn([C@H]4CC[C@H](CCN5CCN(c6ccc([C@]7(C)CCC(=O)NC7=O)cc6)CC5)CC4)c3)c3nccn23)c(F)cc1F [Compound 82, (S)-3-(4-(4-(2-((trans)-4-(4-((5-(2,4-difluoro-5-methylphenyl)imidazo[1,2-a]pyrazin-8-yl)amino)-1H-pyrazol-1-yl)cyclohexyl)ethyl)piperazin-1-yl)phenyl)-3-methylpiperidine-2,6-dione]
IRAK3 ePL degradation Ymin: 66%

O=C1CCC(c2ccc(N3CCN(CCN4CCC(n5cc(Nc6ncc(-c7cccc(F)c7)n7ccnc67)cn5)CC4)CC3)cc2)C(=O)N1 (stereo not drawn) [Compound 80, 3-(4-(4-(2-(4-(4-((5-(3-fluorophenyl)imidazo [1,2-a]pyrazin-8-yl)amino)-1H-pyrazol-1-yl)piperidin-1-yl)ethyl)piperazin-1-yl)phenyl) piperidine-2,6-dione]
IRAK3 ePL degradation Ymin: 28% | DC50: 26 nM

Cc1cccc(-c2cnc(Nc3cnn(C4CCN(CCN5CCN(c6ccc7c(c6)C(=O)N(C6CCC(=O)NC6=O)C7=O)CC5)CC4)c3)c3nccn23)c1 (stereo not drawn) [Compound 2, 2-(2,6-dioxopiperidin-3-yl)-5-(4-(2-(4-(4-((5-(m-tolyl)imidazo[1,2-a]pyrazin-8-yl)amino)-1H-pyrazol-1-yl)piperidin-1-yl)ethyl)piperazin-1-yl)isoindoline-1,3-dione]
IRAK3 ePL degradation Ymin: 15% | DC50: 3 nM

Cc1cc(-c2cnc(Nc3cnn(C4CCN(CCN5CCN(c6cccc(C7CCC(=O)NC7=O)c6)CC5)CC4)c3)c3nccn23)c(F)cc1F (stereo not drawn) [Compound 31, 3-(3-(4-(2-(4-(4-((5-(2,4-difluoro-5-methylphenyl)imdazo [1,2-a]pyrazin-8-yl)amino)-1H-pyrazol-1-yl)piperidin-1-yl)ethyl)piperazin-1-yl)phenyl) piperidine-2,6-dione]
IRAK3 ePL degradation Ymin: 44% | DC50: 38 nM

Cc1cccc(-c2cnc(Nc3cnn(C4CCN(CC(=O)N5CCN(c6ccc7c(c6)C(=O)N(C6CCC(=O)NC6=O)C7)CC5)CC4)c3)c3nccn23)c1 (stereo not drawn) [Compound 16, 3-(1-oxo-6-(4-(2-(4-(4-((5-(m-tolyl)imidazo[1,2-a]pyrazin-8-yl)amino)-1H-pyrazol-1-yl)piperidin-1-yl)acetyl)piperazin-1-yl)isoindolin-2-yl)piperidine-2,6-dione]
IRAK3 ePL degradation Ymin: 33% | DC50: 21 nM
